# Source: US10940201B2, “Nucleic acid derivative having immunostimulatory activity” (Shionogi & Co., Ltd., priority 2015, dated 2021)
# Assay: Subcutaneous irritation test in a single dose
# Assay type: in vivo, rats
# Conditions: for Gross: Crust / Gross: White matter accumulation / Histopathological, Subcutaneous: Cyst-like structure / Histopathological, Subcutaneous tissue: Cyst-like structure / Gross: Dark red spots / Gross: Edema / Gross: Epidermis: Crust: number of the observed animals; for Histopathological, Dermis: Inflammatory cell infiltration / Histopathological, Subcutaneous: Granulomatous inflammation / Histopathological, Subcutaneous: Inflammatory cell infiltration / Histopathological, Subcutaneous: Edema / Histopathological, Muscle layer: Edema / Histopathological, Muscle layer: Inflammatory cell infiltration / Histopathological, Muscle layer: Necrosis / Histopathological, Subcutaneous tissue: Bleeding / Histopathological, Subcutaneous tissue: Edema / Histopathological, Subcutaneous tissue: Inflammatory cell infiltration / Histopathological, Subcutaneous tissue: Necrosis / Histopathological, Subcutaneous: Necrosis: total score of grades
# Procedure: Subcutaneous irritation of a compound of the present invention was evaluated by gross examination and histopathological examination about the skin at necropsy one day, one and four week(s) after subcutaneous administration in a single dose.
# The compound of the present invention was subcutaneously administered to the center of back between the shoulder blades of rats. At necropsy one day, one or four week(s) after administration (isoflurane anesthesia, euthanasia by bleeding), skin at the administration site was collected, grossly observed and fixed in 10% neutral buffered formalin solution. The fixed skin was cut out, embedded and put in a thin slice by the usual methods, and Hematoxylin-eosin (HE) stained sections were made. The pathological observers were observed the HE stained sections by an optical microscope, and recorded the histopathological findings. The changes in pathological findings were evaluated in four grades of Minimal; ±, Mild; +, Moderate; 2+ and Marked; 3+. When any grade was not appropriate for the finding, it was recorded as Positive.
# SEQ-2, SEQ-49 or an adjuvant of the present invention was dissolved in phosphate buffered saline and administered at 4.71, 15.7 or 47.1 nmol/1 mL/site, respectively.
# [1] = four weeks after administration, 4.71 nmol/site
# [2] = four weeks after administration, 15.7 nmol/site
# [3] = four weeks after administration, 47.1 nmol/site
# [4] = one day after administration, 4.71 nmol/site
# [5] = one day after administration, 15.7 nmol/site
# [6] = one day after administration, 47.1 nmol/site
# [7] = one week after administration, 4.71 nmol/site
# [8] = one week after administration, 15.7 nmol/site
# [9] = one week after administration, 47.1 nmol/site
substance,measurement,setting,value
Amph1826 [SEQ-2],Number of deaths/imminent dissections,[1],0/0
same,Gross: Crust,[1],0
same,Gross: White matter accumulation,[1],0
same,"Histopathological, Subcutaneous: Cyst-like structure",[1],0
same,"Histopathological, Dermis: Inflammatory cell infiltration",[1],0
same,"Histopathological, Subcutaneous: Granulomatous inflammation",[1],4
same,"Histopathological, Subcutaneous: Inflammatory cell infiltration",[1],0
same,Number of deaths/imminent dissections,[2],0/0
same,Gross: Crust,[2],0
same,Gross: White matter accumulation,[2],0
same,"Histopathological, Subcutaneous: Cyst-like structure",[2],0
same,"Histopathological, Dermis: Inflammatory cell infiltration",[2],4
same,"Histopathological, Subcutaneous: Edema",[2],0
same,"Histopathological, Subcutaneous: Granulomatous inflammation",[2],5
same,"Histopathological, Subcutaneous: Inflammatory cell infiltration",[2],0
same,Number of deaths/imminent dissections,[3],0/0
same,Gross: Crust,[3],0
same,Gross: White matter accumulation,[3],0
same,"Histopathological, Subcutaneous: Cyst-like structure",[3],0
same,"Histopathological, Dermis: Inflammatory cell infiltration",[3],7
same,"Histopathological, Subcutaneous: Edema",[3],0
same,"Histopathological, Subcutaneous: Granulomatous inflammation",[3],7
same,"Histopathological, Subcutaneous: Inflammatory cell infiltration",[3],0
same,Number of deaths/imminent dissections,[4],0/0
same,"Histopathological, Subcutaneous tissue: Cyst-like structure",[4],1
same,"Histopathological, Dermis: Inflammatory cell infiltration",[4],5
same,"Histopathological, Muscle layer: Edema",[4],1
same,"Histopathological, Muscle layer: Inflammatory cell infiltration",[4],4
same,"Histopathological, Muscle layer: Necrosis",[4],0
same,"Histopathological, Subcutaneous tissue: Bleeding",[4],0
same,"Histopathological, Subcutaneous tissue: Edema",[4],3
same,"Histopathological, Subcutaneous tissue: Inflammatory cell infiltration",[4],7
same,"Histopathological, Subcutaneous tissue: Necrosis",[4],1
same,Number of deaths/imminent dissections,[5],0/0
same,"Histopathological, Subcutaneous tissue: Cyst-like structure",[5],2
same,"Histopathological, Dermis: Inflammatory cell infiltration",[5],9
same,"Histopathological, Muscle layer: Edema",[5],3
same,"Histopathological, Muscle layer: Inflammatory cell infiltration",[5],7
same,"Histopathological, Muscle layer: Necrosis",[5],0
same,"Histopathological, Subcutaneous tissue: Bleeding",[5],3
same,"Histopathological, Subcutaneous tissue: Edema",[5],5
same,"Histopathological, Subcutaneous tissue: Inflammatory cell infiltration",[5],6
same,"Histopathological, Subcutaneous tissue: Necrosis",[5],1
same,Number of deaths/imminent dissections,[6],0/0
same,"Histopathological, Subcutaneous tissue: Cyst-like structure",[6],1
same,"Histopathological, Dermis: Inflammatory cell infiltration",[6],6
same,"Histopathological, Muscle layer: Edema",[6],4
same,"Histopathological, Muscle layer: Inflammatory cell infiltration",[6],6
same,"Histopathological, Muscle layer: Necrosis",[6],0
same,"Histopathological, Subcutaneous tissue: Bleeding",[6],3
same,"Histopathological, Subcutaneous tissue: Edema",[6],6
same,"Histopathological, Subcutaneous tissue: Inflammatory cell infiltration",[6],6
same,"Histopathological, Subcutaneous tissue: Necrosis",[6],1
same,Number of deaths/imminent dissections,[7],0/0
same,Gross: Dark red spots,[7],0
same,Gross: Edema,[7],0
same,Gross: Epidermis: Crust,[7],0
same,Gross: White matter accumulation,[7],0
same,"Histopathological, Subcutaneous: Cyst-like structure",[7],1
same,"Histopathological, Dermis: Inflammatory cell infiltration",[7],4
same,"Histopathological, Muscle layer: Inflammatory cell infiltration",[7],0
same,"Histopathological, Subcutaneous: Edema",[7],3
same,"Histopathological, Subcutaneous: Granulomatous inflammation",[7],0
same,"Histopathological, Subcutaneous: Necrosis",[7],0
same,Number of deaths/imminent dissections,[8],0/0
same,Gross: Dark red spots,[8],0
same,Gross: Edema,[8],1
same,Gross: Epidermis: Crust,[8],0
same,Gross: White matter accumulation,[8],0
same,"Histopathological, Subcutaneous: Cyst-like structure",[8],1
same,"Histopathological, Dermis: Inflammatory cell infiltration",[8],6
same,"Histopathological, Muscle layer: Inflammatory cell infiltration",[8],4
same,"Histopathological, Subcutaneous: Edema",[8],4
same,"Histopathological, Subcutaneous: Granulomatous inflammation",[8],0
same,"Histopathological, Subcutaneous: Inflammatory cell infiltration",[8],8
same,"Histopathological, Subcutaneous: Necrosis",[8],0
same,Number of deaths/imminent dissections,[9],0/0
same,Gross: Dark red spots,[9],0
same,Gross: Edema,[9],1
same,Gross: Epidermis: Crust,[9],0
same,Gross: White matter accumulation,[9],0
same,"Histopathological, Subcutaneous: Cyst-like structure",[9],3
same,"Histopathological, Dermis: Inflammatory cell infiltration",[9],9
same,"Histopathological, Muscle layer: Inflammatory cell infiltration",[9],6
same,"Histopathological, Subcutaneous: Edema",[9],3
same,"Histopathological, Subcutaneous: Granulomatous inflammation",[9],0
same,"Histopathological, Subcutaneous: Inflammatory cell infiltration",[9],8
same,"Histopathological, Subcutaneous: Necrosis",[9],0
same,subcutaneous irritation findings four weeks after administration,"rats, single subcutaneous dose, four weeks","skin inflammation was not recovered, and granulomatous inflammation by continuous activation of monocyte/macrophage system was observed"
same,subcutaneous irritation findings one day after administration,"rats, single subcutaneous dose, one day","inflammation cellular infiltration, edema and crust were observed"
same,subcutaneous irritation findings one week after administration,"rats, single subcutaneous dose, one week","inflammation cellular infiltration, edema and crust were observed"
